In the oligonucleotide strings, read from the 5' end, every base follows the letter of its sugar. An asterisk marks phosphorothioate; unmarked linkages are phosphodiester. Other units and linkages are bracketed, terminal groups are in braces. A string of capitals states the bases alone. e = 2'-O-(2-methoxyethyl) (MOE); [5mC] = 5-methylcytosine; d = 2'-deoxy (DNA)
Test system: HeLa cells
Assay: Cell cycle assay in HeLa cells
Type: cell-based, human
Conditions: for % cells aneuploid / % cells in cell cycle phase G1 / % cells in cell cycle phase G2/M / % cells in cell cycle phase S / % cells in cell cycle phase subG1 / % cells in cell cycle phase: G1 / % cells in cell cycle phase: G2/M / % cells in cell cycle phase: S / % cells in cell cycle phase: aneuploid / % cells in cell cycle phase: subG1 / % cells in cell cycle phase aneuploid: HeLa cells; for % cells in cell cycle phase: G1 / % cells in cell cycle phase: G2/M / % cells in cell cycle phase: S / % cells in cell cycle phase: aneuploid / % cells in cell cycle phase: subG1: 48 hours after treatment, relative to untreated control (UTC=100)
Method: In some embodiments, HeLa cells were plated on collagen-coated 24-well plates at 50,000-60,000 cells per well, and allowed to attach to wells overnight. In some embodiments, HeLa cells were synchronized by double thymidine block (cells were washed three times with PBS, then grown in 10% FBS containing 2 mM thymidine; then 19 hours later, cells were washed three times in PBS, 10% FBS for 9 hours; cells were then incubated in 10% FBS, 2 mM thymidine for 15 hours; then washed three times with PBS, 10% FBS and samples were taken every two hours over a 16 hour period). A portion of each time sample was fixed with ethanol and treated with propidium iodide and subjected to FACs analysis for determination of the percentage of cells in each phase of the cell cycle. […] HeLa cells treated with 10 μM cisplatin or 100 ng/ml nocodazole were used as controls for G1-phase and late G2/M-phases, respectively. From the remaining portion of each of these time samples, total RNA was isolated and used to assess the expression of cell cycle marker mRNAs using the real-time RT-PCR methods and/or used to screen microarrays to assess the expression of miRNAs over the course of the cell cycle. It was observed that several miRNAs are expressed in a cell-cycle-dependent manner. Shown in Table 30 are the mRNA levels of the E2F1 transcription factor and topoisomerase 2A (Top2A), which vary over the course of the cell cycle and can be used for comparison to the experimental groups for the confirmation of cell cycle phase. Data are an average of three trials.
In some embodiments, HeLa cells were also treated with oligomeric compounds targeting miRNAs. […] The medium was removed from the plates. Each well was washed in 250 μl of PBS. […] Control cells received LIPOFECTIN™ only. […] After 24 hours (Table 31) or 48 hours (Table 32), cells were prepared for flow cytometry analysis to generate a cell cycle profile. The cell cycle profile was analyzed with the ModFit program (Verity Software House, Inc., Topsham Me.).
The random-mer ISIS 29848 (SEQ ID NO: 737) was used as a negative control, and ISIS 183891 (SEQ ID NO: 847), targeting kinesin-like 1/Eg5, was included as a positive control. Data are expressed as percentage of cells in each phase relative to the untreated control (UTC); values above 100 are considered to indicate a delay or arrest in that phase of the cell cycle. […] In some cases, the same oligomeric compound was tested in repeated experiments.
In accordance with the present invention, certain oligomeric compounds targeting miRNAs were selected for dose response studies. Using the cell cycle assay described above, the cell cycle profiles of HeLa or A549 cells treated with varying concentrations of oligomeric compounds of the present invention were assessed.
HeLa cells were treated with 25-, 50-, 100- or 150 nM of the oligomeric compounds ISIS
Numbers 327902 (SEQ ID NO: 320) and 328383 (SEQ ID NO: 492), both targeted against mir-192, and ISIS 327905 (SEQ ID NO: 323), targeting mir-205, and ISIS 328403 (SEQ ID NO: 512), targeting mir-106. Cells treated with increasing concentrations of oligomeric compounds were compared to untreated cells, to assess the dose-dependency of the observed delay or arrest. The random-mer ISIS 29848 was used as a negative control. Cells were prepared for flow cytometry 48-hours after oligonucleotide treatment, as described, supra.

[1] = 150 nM oligomeric compound, 24 hours, relative to untreated control (UTC = 100)
[2] = 150 nM, 48 hours, relative to untreated control

## ISIS 328759: SEQ ID NO: 668, targeted to mir-216 (eG*eA*eG*eG*eG*dA*dT*dT*dG*dT*dA*dT*dG*dA*dA*e[5mC]*eA*eT*e[5mC]*eT)
HeLa, 150 nM, 24-hour and 48-hour timepoints
  chromosome missegregation (subG1 or aneuploid DNA content): induce chromosome missegregation events
HeLa, 150 nM, 48 hours
  phase of the cell cycle in which cells arrest or delay: delay or arrest resulted in the G2/M-phase
HeLa, 150 nM, both 24 and 48 hours
  phase of the cell cycle in which cells arrest or delay: G2/M-phase

## 338690 (antisense TAGACAAAAACAGACTCTGA; all 2'-MOE, all phosphorothioate, methylation of C not given here) [compound 338690]
[1]
  % cells aneuploid: 194%
  % cells in cell cycle phase G1: 124%
  % cells in cell cycle phase G2/M: 123%
  % cells in cell cycle phase S: 78%
  % cells in cell cycle phase subG1: 149%
150 nM oligomeric compound
  % cells in cell cycle phase: G1: 91%
  % cells in cell cycle phase: G2/M: 112%
  % cells in cell cycle phase: S: 110%
  % cells in cell cycle phase: aneuploid: 190%
  % cells in cell cycle phase: subG1: 413%

## ISIS 328403: 5-10-5 2′-MOE gapmer PS; SEQ ID NO 512; targets mir-106 pri-miRNA (eA*eG*eG*e[5mC]*e[5mC]*dT*dA*dT*dT*d[5mC]*d[5mC]*dT*dG*dT*dA*eG*e[5mC]*eA*eA*eA) [5-10-5 2′-MOE gapmer PS; targets mir-106 pri-miRNA]
HeLa, 150 nM, 24 hours
  phase of the cell cycle in which cells arrest or delay: G2/M-phase
HeLa, 150 nM, 48 hours
  phase of the cell cycle in which cells arrest or delay: S- and G2/M-phases

## 328339 (eG*e[5mC]*eA*eG*e[5mC]*dG*d[5mC]*dA*dG*d[5mC]*dT*dG*dG*dT*d[5mC]*eT*e[5mC]*e[5mC]*e[5mC]*e[5mC]) [compound 328339]
[1]
  % cells aneuploid: 61%
  % cells in cell cycle phase G1: 77%
  % cells in cell cycle phase G2/M: 143%
  % cells in cell cycle phase S: 102%
  % cells in cell cycle phase subG1: 235%
150 nM oligomeric compound
  % cells in cell cycle phase: G1: 73%
  % cells in cell cycle phase: G2/M: 123%
  % cells in cell cycle phase: S: 153%
  % cells in cell cycle phase: aneuploid: 92%
  % cells in cell cycle phase: subG1: 678%

## 338809 (antisense CTGCTCCAGAGCCCGAGTCG; all 2'-MOE, all phosphorothioate, methylation of C not given here) [compound 338809]
[1]
  % cells aneuploid: 210%
  % cells in cell cycle phase G1: 159%
  % cells in cell cycle phase G2/M: 69%
  % cells in cell cycle phase S: 82%
  % cells in cell cycle phase subG1: 106%
150 nM oligomeric compound
  % cells in cell cycle phase: G1: 86%
  % cells in cell cycle phase: G2/M: 129%
  % cells in cell cycle phase: S: 110%
  % cells in cell cycle phase: aneuploid: 157%
  % cells in cell cycle phase: subG1: 345%

## 341787 (antisense CACAGGTTAAAGGGTCTCAGGGA; all 2'-MOE, all phosphorothioate, methylation of C not given here) [compound 341787]
[1]
  % cells aneuploid: 165%
  % cells in cell cycle phase G1: 113%
  % cells in cell cycle phase G2/M: 144%
  % cells in cell cycle phase S: 75%
  % cells in cell cycle phase subG1: 221%
150 nM oligomeric compound
  % cells in cell cycle phase: G1: 55%
  % cells in cell cycle phase: G2/M: 197%
  % cells in cell cycle phase: S: 126%
  % cells in cell cycle phase: aneuploid: 153%
  % cells in cell cycle phase: subG1: 707%
[2]
  % cells in cell cycle phase G1: 88%
  % cells in cell cycle phase G2/M: 145%
  % cells in cell cycle phase S: 96%
  % cells in cell cycle phase aneuploid: 177%
  % cells in cell cycle phase subG1: 324%

## 328724 (antisense eG*eA*e[5mC]*eA*eT*d[5mC]*dA*dT*dG*dT*dG*dA*dT*dT*dT*eG*e[5mC]*eT*e[5mC]*eA) [compound 328724]
[1]
  % cells aneuploid: 197%
  % cells in cell cycle phase G1: 91%
  % cells in cell cycle phase G2/M: 135%
  % cells in cell cycle phase S: 90%
  % cells in cell cycle phase subG1: 155%
150 nM oligomeric compound
  % cells in cell cycle phase: G1: 70%
  % cells in cell cycle phase: G2/M: 140%
  % cells in cell cycle phase: S: 134%
  % cells in cell cycle phase: aneuploid: 155%
  % cells in cell cycle phase: subG1: 653%

## 338756 (antisense TGCCCTGCTCAGAGCCCTAG; all 2'-MOE, all phosphorothioate, methylation of C not given here) [compound 338756]
[1]
  % cells aneuploid: 166%
  % cells in cell cycle phase G1: 147%
  % cells in cell cycle phase G2/M: 99%
  % cells in cell cycle phase S: 75%
  % cells in cell cycle phase subG1: 137%
150 nM oligomeric compound
  % cells in cell cycle phase: G1: 90%
  % cells in cell cycle phase: G2/M: 100%
  % cells in cell cycle phase: S: 121%
  % cells in cell cycle phase: aneuploid: 169%
  % cells in cell cycle phase: subG1: 311%

## 341785 (antisense GGAGTGAAGACACGGAGCCAGA; all 2'-MOE, all phosphorothioate, methylation of C not given here) [compound 341785]
[1]
  % cells aneuploid: 158%
  % cells in cell cycle phase G1: 152%
  % cells in cell cycle phase G2/M: 53%
  % cells in cell cycle phase S: 92%
  % cells in cell cycle phase subG1: 125%
150 nM oligomeric compound
  % cells in cell cycle phase: G1: 82%
  % cells in cell cycle phase: G2/M: 116%
  % cells in cell cycle phase: S: 126%
  % cells in cell cycle phase: aneuploid: 166%
  % cells in cell cycle phase: subG1: 1148%

## AGCCTATCCTGGATTACTTGAA (chemistry not fully specified) [ISIS 345373]
HeLa, 150 nM, 24 hours
  phase of the cell cycle in which cells arrest or delay: G2/M-phase
HeLa, 150 nM, 48 hours
  phase of the cell cycle in which cells arrest or delay: S-phase

## 328674 (eT*eG*e[5mC]*e[5mC]*e[5mC]*dT*dG*d[5mC]*dT*d[5mC]*dA*dG*dA*dG*d[5mC]*e[5mC]*e[5mC]*eT*eA*eG; antisense) [compound 328674]
[1]
  % cells aneuploid: 69%
  % cells in cell cycle phase G1: 125%
  % cells in cell cycle phase G2/M: 84%
  % cells in cell cycle phase S: 93%
  % cells in cell cycle phase subG1: 564%
150 nM oligomeric compound
  % cells in cell cycle phase: G1: 69%
  % cells in cell cycle phase: G2/M: 109%
  % cells in cell cycle phase: S: 160%
  % cells in cell cycle phase: aneuploid: 134%
  % cells in cell cycle phase: subG1: 1663%

## 338666 (antisense TCACGTGGAGAGGAGTTAAA; all 2'-MOE, all phosphorothioate, methylation of C not given here) [compound 338666]
[1]
  % cells aneuploid: 102%
  % cells in cell cycle phase G1: 123%
  % cells in cell cycle phase G2/M: 158%
  % cells in cell cycle phase S: 63%
  % cells in cell cycle phase subG1: 235%
150 nM oligomeric compound
  % cells in cell cycle phase: G1: 44%
  % cells in cell cycle phase: G2/M: 217%
  % cells in cell cycle phase: S: 136%
  % cells in cell cycle phase: aneuploid: 125%
  % cells in cell cycle phase: subG1: 1832%
[2]
  % cells in cell cycle phase G1: 92%
  % cells in cell cycle phase G2/M: 130%
  % cells in cell cycle phase S: 98%
  % cells in cell cycle phase aneuploid: 151%
  % cells in cell cycle phase subG1: 214%

## 338678 (antisense CTGGTTGGGTATGAGACAGA; all 2'-MOE, all phosphorothioate, methylation of C not given here) [compound 338678]
[1]
  % cells aneuploid: 202%
  % cells in cell cycle phase G1: 122%
  % cells in cell cycle phase G2/M: 131%
  % cells in cell cycle phase S: 75%
  % cells in cell cycle phase subG1: 162%
150 nM oligomeric compound
  % cells in cell cycle phase: G1: 81%
  % cells in cell cycle phase: G2/M: 188%
  % cells in cell cycle phase: S: 78%
  % cells in cell cycle phase: aneuploid: 179%
  % cells in cell cycle phase: subG1: 1158%
[2]
  % cells in cell cycle phase G1: 103%
  % cells in cell cycle phase G2/M: 105%
  % cells in cell cycle phase S: 94%
  % cells in cell cycle phase aneuploid: 132%
  % cells in cell cycle phase subG1: 129%
